According to article PMC10673624 (Current research in chemical biology, 2023):
Values belong to the compound of their own block, whether it stands above or below them.

Experiments:
[1] = test system: pSR and CLK2 localization, U118-MG and MDA-MB-435 cells; assay: Immunofluorescence of pSR and CLK2 localization; assay type: cell-based; settings: 500 nM, over the course of 60 min
CLK = settings: ref SGC chemical probe website (thesgc.org/chemical-probes/MU1210, /T3-CLK); cited from earlier work
MDA-MB-435 = assay: Crystal violet cell proliferation; assay type: cell-based; settings: MDA-MB-435, denoted concentrations, 7 days (Fig. 6a)
HIPK2 [2] = target: T1, HIPK2 (Homo sapiens, UniProt Q9H2X6); assay: Eurofins enzymatic assay; assay type: biochemical
HIPK2 [3] = target: T1, HIPK2; assay: NanoBRET in-cell target engagement; assay type: cell-based
STK16 [4] = target: T2, STK16 (Homo sapiens, UniProt O75716); assay: NanoBRET in-cell target engagement; assay type: cell-based
HIPK1 [5] = target: T3, HIPK1 (Homo sapiens, UniProt Q86Z02); assay: Eurofins enzymatic assay; assay type: biochemical
HIPK1 [6] = target: T3, HIPK1; assay: NanoBRET in-cell target engagement; assay type: cell-based
[7] = test system: CLK2 or pSR distribution, BT-20; assay: Immunofluorescence of pSR and CLK2 localization; assay type: cell-based
BT-20 = assay: Crystal violet cell proliferation; assay type: cell-based; settings: BT-20, denoted concentrations, 7 days (Fig. 6a)
STK16 [8] = target: T2, STK16; assay: Eurofins enzymatic assay; assay type: biochemical
ERK8 (MAPK15) = ERK8 (MAPK15) (Homo sapiens, UniProt Q8TD08); assay: KINOMEscan scanMAX binding
U118-MG = assay: Crystal violet cell proliferation; assay type: cell-based; settings: denoted concentrations, 7 days (Fig. 6a)
[9] = test system: 100 different cancer cell lines; assay: ProQinase CL100 cancer cell line panel; assay type: cell-based; settings: of 100 cell lines tested, CellTiter-Glo
CLK1 [10] = target: T4, CLK1 (Homo sapiens, UniProt P49759); assay: NanoBRET in-cell target engagement; assay type: cell-based
[11] = test system: SR phosphorylation (pSR), U118-MG cells; assay: Western blot of phosphorylated SR proteins; assay type: cell-based
CLK2 [12] = target: T5, CLK2 (Homo sapiens, UniProt P49760); assay: NanoBRET in-cell target engagement; assay type: cell-based
CLK2 [13] = target: T5, CLK2; assay: Eurofins enzymatic assay; assay type: biochemical
CLK4 [14] = target: T6, CLK4 (Homo sapiens, UniProt Q9HAZ1); assay: Eurofins enzymatic assay; assay type: biochemical
CLK4 [15] = assay: Luceome KinaseSeeker binding; settings: CLK4, 1 μM
CLK3 = CLK3 (Homo sapiens, UniProt P49761); assay: Eurofins enzymatic assay; assay type: biochemical
CLK1 [16] = target: T4, CLK1; assay: Eurofins enzymatic assay; assay type: biochemical
CLK1 [17] = target: T4, CLK1; assay: Luceome KinaseSeeker binding; settings: read-out: KinaseSeeker activity remaining
CLK4 [18] = target: T6, CLK4; assay: NanoBRET in-cell target engagement; assay type: cell-based
CLK2 [19] = target: T5, CLK2; assay: Luceome KinaseSeeker binding; settings: read-out: KinaseSeeker activity remaining
[20] = test system: 403 wildtype (WT) human as well as several mutant and nonhuman kinases; assay type: binding; settings: no kinase bound below this PoC

T4 sequence (P49759 whole entry): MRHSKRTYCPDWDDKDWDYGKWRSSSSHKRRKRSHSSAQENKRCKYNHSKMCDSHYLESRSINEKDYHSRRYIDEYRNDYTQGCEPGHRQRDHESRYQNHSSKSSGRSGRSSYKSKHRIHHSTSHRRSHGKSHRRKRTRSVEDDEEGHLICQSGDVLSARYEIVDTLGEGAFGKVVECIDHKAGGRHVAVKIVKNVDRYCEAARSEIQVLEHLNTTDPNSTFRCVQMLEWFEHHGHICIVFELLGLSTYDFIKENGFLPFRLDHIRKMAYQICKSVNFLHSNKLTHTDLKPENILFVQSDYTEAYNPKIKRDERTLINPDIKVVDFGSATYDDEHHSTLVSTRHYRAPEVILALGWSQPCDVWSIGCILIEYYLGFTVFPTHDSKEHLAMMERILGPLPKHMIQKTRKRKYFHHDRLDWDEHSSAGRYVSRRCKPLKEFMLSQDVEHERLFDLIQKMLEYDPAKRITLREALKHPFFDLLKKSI
T5 sequence (P49760 whole entry): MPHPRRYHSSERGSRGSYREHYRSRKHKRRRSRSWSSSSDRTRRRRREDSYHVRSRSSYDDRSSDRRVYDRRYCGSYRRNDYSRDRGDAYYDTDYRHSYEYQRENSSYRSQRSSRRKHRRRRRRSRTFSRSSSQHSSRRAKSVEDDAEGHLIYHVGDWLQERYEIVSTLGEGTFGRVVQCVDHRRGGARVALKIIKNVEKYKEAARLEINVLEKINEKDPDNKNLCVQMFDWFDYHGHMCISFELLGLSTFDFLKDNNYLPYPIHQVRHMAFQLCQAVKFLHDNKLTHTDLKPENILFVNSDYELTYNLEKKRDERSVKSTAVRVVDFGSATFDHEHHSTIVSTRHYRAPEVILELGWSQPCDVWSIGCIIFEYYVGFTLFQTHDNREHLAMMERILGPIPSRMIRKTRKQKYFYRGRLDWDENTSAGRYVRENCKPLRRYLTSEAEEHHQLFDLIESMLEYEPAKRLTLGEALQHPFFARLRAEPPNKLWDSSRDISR
T1 sequence (Q9H2X6 whole entry): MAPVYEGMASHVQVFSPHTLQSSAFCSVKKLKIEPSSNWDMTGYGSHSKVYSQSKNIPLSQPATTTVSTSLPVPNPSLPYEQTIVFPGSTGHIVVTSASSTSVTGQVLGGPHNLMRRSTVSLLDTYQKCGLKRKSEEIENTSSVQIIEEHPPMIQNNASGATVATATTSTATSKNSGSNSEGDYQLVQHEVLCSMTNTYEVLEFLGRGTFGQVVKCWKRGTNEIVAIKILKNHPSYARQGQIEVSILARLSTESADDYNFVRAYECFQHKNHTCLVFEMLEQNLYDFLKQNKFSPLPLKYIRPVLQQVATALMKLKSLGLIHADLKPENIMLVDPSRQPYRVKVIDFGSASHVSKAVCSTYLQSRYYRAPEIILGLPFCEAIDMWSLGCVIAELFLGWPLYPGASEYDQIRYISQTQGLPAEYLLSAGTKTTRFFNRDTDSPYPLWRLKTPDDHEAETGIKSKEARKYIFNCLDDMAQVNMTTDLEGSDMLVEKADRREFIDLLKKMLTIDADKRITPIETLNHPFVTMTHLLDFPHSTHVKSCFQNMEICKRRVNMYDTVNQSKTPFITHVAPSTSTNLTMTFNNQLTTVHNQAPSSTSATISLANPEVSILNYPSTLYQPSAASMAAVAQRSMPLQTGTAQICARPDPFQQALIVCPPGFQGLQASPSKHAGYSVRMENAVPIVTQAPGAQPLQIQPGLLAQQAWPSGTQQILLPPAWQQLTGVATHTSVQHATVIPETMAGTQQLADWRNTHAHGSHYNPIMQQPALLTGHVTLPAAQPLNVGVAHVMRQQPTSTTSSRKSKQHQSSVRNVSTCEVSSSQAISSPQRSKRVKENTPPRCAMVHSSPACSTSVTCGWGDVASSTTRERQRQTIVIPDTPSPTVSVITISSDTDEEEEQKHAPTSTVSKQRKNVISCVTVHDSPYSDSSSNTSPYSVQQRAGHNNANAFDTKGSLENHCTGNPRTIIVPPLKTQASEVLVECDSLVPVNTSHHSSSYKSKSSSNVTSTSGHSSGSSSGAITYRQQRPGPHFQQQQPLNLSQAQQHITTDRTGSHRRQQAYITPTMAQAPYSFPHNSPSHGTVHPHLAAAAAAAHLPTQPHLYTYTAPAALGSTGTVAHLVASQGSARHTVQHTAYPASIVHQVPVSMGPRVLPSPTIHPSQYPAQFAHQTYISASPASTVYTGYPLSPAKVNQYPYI
T3 sequence (Q86Z02 whole entry): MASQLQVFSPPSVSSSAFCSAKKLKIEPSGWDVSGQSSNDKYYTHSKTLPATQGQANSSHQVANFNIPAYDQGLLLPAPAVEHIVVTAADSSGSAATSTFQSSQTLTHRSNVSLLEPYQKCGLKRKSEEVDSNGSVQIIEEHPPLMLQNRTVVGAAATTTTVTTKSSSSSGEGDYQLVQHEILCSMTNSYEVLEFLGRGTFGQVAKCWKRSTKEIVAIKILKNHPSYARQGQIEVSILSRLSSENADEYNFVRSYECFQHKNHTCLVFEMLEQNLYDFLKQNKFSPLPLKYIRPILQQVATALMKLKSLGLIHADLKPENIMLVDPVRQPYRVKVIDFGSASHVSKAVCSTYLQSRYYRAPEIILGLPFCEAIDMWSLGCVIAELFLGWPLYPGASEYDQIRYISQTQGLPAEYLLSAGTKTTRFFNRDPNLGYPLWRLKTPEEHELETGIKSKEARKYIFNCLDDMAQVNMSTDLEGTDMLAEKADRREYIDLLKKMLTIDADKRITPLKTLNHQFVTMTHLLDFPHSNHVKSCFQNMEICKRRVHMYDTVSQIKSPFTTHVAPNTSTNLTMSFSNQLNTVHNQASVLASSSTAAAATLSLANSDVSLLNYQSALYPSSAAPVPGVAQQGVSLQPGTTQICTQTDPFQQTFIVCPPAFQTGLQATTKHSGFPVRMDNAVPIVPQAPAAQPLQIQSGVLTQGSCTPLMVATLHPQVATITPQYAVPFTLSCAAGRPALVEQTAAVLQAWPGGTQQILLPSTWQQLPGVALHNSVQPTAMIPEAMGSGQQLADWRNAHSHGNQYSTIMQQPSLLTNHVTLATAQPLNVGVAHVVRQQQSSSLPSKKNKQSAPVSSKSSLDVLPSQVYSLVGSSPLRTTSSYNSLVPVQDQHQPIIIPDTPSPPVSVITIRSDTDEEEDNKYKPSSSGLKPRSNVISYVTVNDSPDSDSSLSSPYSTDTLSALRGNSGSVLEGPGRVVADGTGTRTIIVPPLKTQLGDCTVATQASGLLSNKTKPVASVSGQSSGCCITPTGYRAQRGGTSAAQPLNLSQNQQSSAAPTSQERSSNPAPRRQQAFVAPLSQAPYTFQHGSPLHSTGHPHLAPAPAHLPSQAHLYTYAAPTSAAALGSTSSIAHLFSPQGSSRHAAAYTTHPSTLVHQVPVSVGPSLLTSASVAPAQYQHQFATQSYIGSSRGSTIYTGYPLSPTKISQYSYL
T6 sequence (Q9HAZ1 whole entry): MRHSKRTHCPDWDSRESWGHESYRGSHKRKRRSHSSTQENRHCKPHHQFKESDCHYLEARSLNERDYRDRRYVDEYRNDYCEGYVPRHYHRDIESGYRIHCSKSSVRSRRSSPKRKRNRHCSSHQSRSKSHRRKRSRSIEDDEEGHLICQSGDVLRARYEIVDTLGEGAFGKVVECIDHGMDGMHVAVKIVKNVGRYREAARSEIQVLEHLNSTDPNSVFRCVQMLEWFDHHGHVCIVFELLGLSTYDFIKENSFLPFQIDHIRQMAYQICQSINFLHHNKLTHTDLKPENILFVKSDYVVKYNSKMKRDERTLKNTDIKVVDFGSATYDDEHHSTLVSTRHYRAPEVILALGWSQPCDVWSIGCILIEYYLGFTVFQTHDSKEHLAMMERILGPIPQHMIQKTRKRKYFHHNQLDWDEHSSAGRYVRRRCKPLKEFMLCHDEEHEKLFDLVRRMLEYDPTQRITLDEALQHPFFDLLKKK
ERK8 (MAPK15), sequence (Q8TD08 whole entry): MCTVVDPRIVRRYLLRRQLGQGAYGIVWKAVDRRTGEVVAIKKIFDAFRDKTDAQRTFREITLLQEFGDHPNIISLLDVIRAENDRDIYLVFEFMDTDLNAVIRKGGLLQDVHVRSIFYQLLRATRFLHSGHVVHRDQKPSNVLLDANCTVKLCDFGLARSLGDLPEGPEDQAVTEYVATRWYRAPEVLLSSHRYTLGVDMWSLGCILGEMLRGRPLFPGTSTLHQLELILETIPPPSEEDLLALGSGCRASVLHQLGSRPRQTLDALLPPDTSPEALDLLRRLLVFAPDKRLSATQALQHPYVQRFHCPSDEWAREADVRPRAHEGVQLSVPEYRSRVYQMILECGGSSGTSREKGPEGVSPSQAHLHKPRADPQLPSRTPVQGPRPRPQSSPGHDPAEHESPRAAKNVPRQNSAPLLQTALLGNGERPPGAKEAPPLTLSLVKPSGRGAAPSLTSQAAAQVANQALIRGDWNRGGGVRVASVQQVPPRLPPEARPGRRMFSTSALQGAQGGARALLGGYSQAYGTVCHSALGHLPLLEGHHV
T2 sequence (O75716 whole entry): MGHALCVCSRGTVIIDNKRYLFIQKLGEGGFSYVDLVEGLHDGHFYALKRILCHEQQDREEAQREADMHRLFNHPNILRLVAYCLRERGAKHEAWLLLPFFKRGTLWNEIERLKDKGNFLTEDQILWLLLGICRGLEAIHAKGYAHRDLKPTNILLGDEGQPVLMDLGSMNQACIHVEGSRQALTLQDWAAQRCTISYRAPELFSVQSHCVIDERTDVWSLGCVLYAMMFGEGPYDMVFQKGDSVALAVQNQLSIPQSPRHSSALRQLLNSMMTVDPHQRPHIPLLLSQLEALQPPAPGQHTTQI

SMILES: Cn1cc(-c2ccc3occ(-c4cccc(-c5ccncc5)c4)c3n2)cn1 [Compound 1, reference compound]
Effect on pSR and CLK2 localization [1]: did not show any effect on pSR or CLK2 localization | Activity in the CLK nanoBRET assays (CLK): active

IC50 (HIPK2 [2]): 42 nM | IC50 (HIPK2 [3]): > 10 µM | NanoBRET binding (in words) (STK16 [4]): only partial inhibition | IC50 (HIPK1 [5]): 50 nM | IC50 (HIPK1 [6]): > 10 µM | IC50 (STK16 [8]): 49 nM | Cell lines with IC50 for inhibiting proliferation <250 nM [9]: 27/100 | IC50 (CLK1 [10]; Cellular IC50 (NanoBRET), CLK1, HEK293, Tracer K5): 154 ± 50 nM
SMILES: COc1cc(Nc2nccc(-c3cnn4nc(OC)ccc34)n2)cc(C(F)(F)F)c1 [SGC-CLK-1, N-(3-methoxy-5-(trifluoromethyl)phenyl)-4-(6-methoxypyrazolo[1,5-b]pyridazin-3-yl) pyrimidin-2-amine]
Effect on pSR and CLK2 localization [1]: significant changes in the cellular distribution of both pSRs and CLK2 | Effect on cell growth (crystal violet) (MDA-MB-435): dose-dependent decrease in the growth | Effect on CLK2 or pSR distribution [7]: did not observe a difference in CLK2 or pSR distribution | Effect on cell growth (crystal violet) (BT-20): no growth change | % Control (1 μM) (ERK8 (MAPK15); ERK8 (MAPK15), 1 μM): 21% | remaining binding at 1 µM (ERK8 (MAPK15); read-out: % Control (1 μM), ERK8 (MAPK15), 1 μM): < 35% | Effect on cell growth (crystal violet) (U118-MG): dose-dependent decrease in the growth | Change in SR phosphorylation (pSR) ([11]; 1 μM, highest treatment condition): did not detect significant pSR changes | Change in SR phosphorylation (pSR) ([11]; 5 μM, 30 min post treatment, U118-MG): decrease in SR phosphorylation

NanoBRET activity (in words) (CLK2 [12]): inactive | Enzymatic inhibition (in words) (CLK2 [13]): no inhibition | Enzymatic inhibition (in words) (CLK4 [14]): no inhibition | KinaseSeeker activity remaining (CLK4 [15]): 100% | Enzymatic inhibition (in words) (CLK3): no inhibition | Enzymatic inhibition (in words) (CLK1 [16]): no inhibition | remaining activity at 1 µM (CLK1 [17]): 100% | NanoBRET activity (in words) (CLK4 [18]): inactive | remaining activity at 1 µM (CLK2 [19]): 100% | PoC of any kinase in the KINOMEscan panel [20]: ≥ 45 | NanoBRET activity (in words) (CLK1 [10]; CLK1): inactive
SMILES: CCOc1ccc2c(-c3cc(C)nc(Nc4cc(OC)cc(C(F)(F)F)c4)n3)cnn2n1 [SGC-CLK-1N, 4-(6-ethoxypyrazolo [1,5-b]pyridazin-3-yl)-N-(3-methoxy-5-(trifluoromethyl)phenyl)-6-methylpyrimidin-2-amine]
Effect on cell growth (crystal violet) (MDA-MB-435): little effect | Effect on CLK2 or pSR distribution [7]: did not observe a difference in CLK2 or pSR distribution | Effect on cell growth (crystal violet) (U118-MG): little effect
